Assay results reported in article PMC8247115 (Cell, 2020).

Columns and labels:
[1] = biological target: T1, CB2 (Homo sapiens, UniProt P34972); settings: read-out: Ki CB2; partial agonist on CB2; ref Dhopeshwarkar et al., 2017; cited from earlier work
[2] = biological target: CB1; settings: read-out: Ki CB1; antagonist on CB1; ref Dhopeshwarkar et al., 2017; cited from earlier work
[3] = biological target: T1, CB2; assay: cell-based; type: cell-based; settings: for functional behaviour at CB2: cAMP functional assay

T1 sequence (P34972 whole entry): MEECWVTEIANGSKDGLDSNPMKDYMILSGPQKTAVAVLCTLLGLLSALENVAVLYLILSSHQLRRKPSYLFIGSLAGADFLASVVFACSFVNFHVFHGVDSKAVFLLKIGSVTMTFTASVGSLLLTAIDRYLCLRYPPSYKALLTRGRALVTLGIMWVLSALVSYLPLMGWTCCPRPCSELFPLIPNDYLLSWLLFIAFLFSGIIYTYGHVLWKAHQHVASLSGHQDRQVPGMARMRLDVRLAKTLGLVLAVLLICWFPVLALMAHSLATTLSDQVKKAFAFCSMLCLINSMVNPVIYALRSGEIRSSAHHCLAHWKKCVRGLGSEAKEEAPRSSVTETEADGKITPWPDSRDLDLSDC

For `COc1ccc2c(c1)c(CCN1CCOCC1)c(C)n2C(=O)c1cccc(Cl)c1Cl` [GW-405,833], the Ki [1] is listed as 0.00392 ± 0.00158 µM and the Ki [2] is listed as 4.77 ± 1.68 µM.
For `CCN(CC)c1ccc(CN(Cc2cc(OC)c(OC)c(OC)c2)S(=O)(=O)/C=C/c2ccccc2)cc1` [XIE55, (E)-N-(4-(diethylamino)benzyl)-2-phenyl-N-(3,4,5-trimethoxybenzyl)ethene-1-sulfonamide], the EC50 [3] was 1.5 ± 0.4 µM and the “functional behaviour at CB2” value [3] was “inverse agonist”.
For `CCN(CC)c1ccc(CN(Cc2cc(OC)c(OC)c(OC)c2)S(=O)(=O)c2cccs2)cc1` [XIE57, N-(4-(diethylamino)benzyl)-N-(3,4,5-trimethoxybenzyl)thiophene-2-sulfonamide], the EC50 [3] was 6.9 ± 2.9 µM and the “functional behaviour at CB2” value [3] was “partial agonist”.
